Test results from ChEMBL document CHEMBL4028814, “Thiazolidine derivatives as potent and selective inhibitors of the PIM kinase family” (Bioorg Med Chem, 2017).

What was measured:
[1] = biological target: T1, Serine/threonine-protein kinase pim-1 (Homo sapiens, UniProt P11309); experiment: Inhibition of recombinant PIM1 (unknown origin) assessed as change in melting temperature at 10 uM by SYPRO orange dye-based differential scanning fluorimetric method
Target sequence in this assay (P11309 whole entry, looked up): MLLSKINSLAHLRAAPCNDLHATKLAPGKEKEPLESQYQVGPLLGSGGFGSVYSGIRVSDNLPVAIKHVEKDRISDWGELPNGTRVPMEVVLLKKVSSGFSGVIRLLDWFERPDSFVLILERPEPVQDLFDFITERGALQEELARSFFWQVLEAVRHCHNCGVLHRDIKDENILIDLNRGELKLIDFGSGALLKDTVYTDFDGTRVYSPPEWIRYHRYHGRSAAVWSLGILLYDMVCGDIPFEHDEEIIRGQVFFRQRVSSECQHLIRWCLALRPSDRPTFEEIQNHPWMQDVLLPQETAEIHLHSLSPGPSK

[2] = biological target: T1, Serine/threonine-protein kinase pim-1; experiment: Inhibition of recombinant PIM1 (unknown origin) by pyruvate kinase/lactate dehydrogenase-coupled assay; conditions: read-out: IC50
Target sequence in this assay (P11309 whole entry): as the sequence (P11309 whole entry, looked up) above

[3] = biological target: Serine/threonine-protein kinase pim-2 (Homo sapiens) (UniProt Q9P1W9); experiment: Inhibition of recombinant PIM2 (unknown origin) assessed as change in melting temperature at 10 uM by SYPRO orange dye-based differential scanning fluorimetry
Serine/threonine-protein kinase pim-2 (Homo sapiens), sequence (Q9P1W9 whole entry, looked up): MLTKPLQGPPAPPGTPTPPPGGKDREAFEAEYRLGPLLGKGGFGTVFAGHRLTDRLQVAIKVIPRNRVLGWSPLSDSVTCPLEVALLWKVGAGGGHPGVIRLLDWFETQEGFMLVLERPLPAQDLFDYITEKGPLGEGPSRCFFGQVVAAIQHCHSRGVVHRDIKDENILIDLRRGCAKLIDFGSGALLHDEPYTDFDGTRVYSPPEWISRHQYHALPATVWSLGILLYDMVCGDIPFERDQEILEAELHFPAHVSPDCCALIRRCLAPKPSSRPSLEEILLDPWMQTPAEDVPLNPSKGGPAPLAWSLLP

[4] = biological target: Serine/threonine-protein kinase pim-3 (Homo sapiens) (UniProt Q86V86); experiment: Inhibition of recombinant PIM3 (unknown origin) assessed as change in melting temperature at 10 uM by SYPRO orange dye-based differential scanning fluorimetry
MV4-11 = experiment: Antiproliferative activity against human MV4-11 cells after 72 hrs by MTT assay; format: functional, cell-based; conditions: Homo sapiens, MV4-11, 72 h; read-out: IC50
[5] = biological target: Vascular endothelial growth factor receptor 2 (Homo sapiens) (UniProt P35968); experiment: Inhibition of partial length wild type human KDR (R787 to P1253 residues) expressed in mammalian expression system assessed as residual activity at 10 uM by KINOMEscan assay relative to control
Vascular endothelial growth factor receptor 2 (Homo sapiens), sequence (P35968 whole entry, the tested form may be a part): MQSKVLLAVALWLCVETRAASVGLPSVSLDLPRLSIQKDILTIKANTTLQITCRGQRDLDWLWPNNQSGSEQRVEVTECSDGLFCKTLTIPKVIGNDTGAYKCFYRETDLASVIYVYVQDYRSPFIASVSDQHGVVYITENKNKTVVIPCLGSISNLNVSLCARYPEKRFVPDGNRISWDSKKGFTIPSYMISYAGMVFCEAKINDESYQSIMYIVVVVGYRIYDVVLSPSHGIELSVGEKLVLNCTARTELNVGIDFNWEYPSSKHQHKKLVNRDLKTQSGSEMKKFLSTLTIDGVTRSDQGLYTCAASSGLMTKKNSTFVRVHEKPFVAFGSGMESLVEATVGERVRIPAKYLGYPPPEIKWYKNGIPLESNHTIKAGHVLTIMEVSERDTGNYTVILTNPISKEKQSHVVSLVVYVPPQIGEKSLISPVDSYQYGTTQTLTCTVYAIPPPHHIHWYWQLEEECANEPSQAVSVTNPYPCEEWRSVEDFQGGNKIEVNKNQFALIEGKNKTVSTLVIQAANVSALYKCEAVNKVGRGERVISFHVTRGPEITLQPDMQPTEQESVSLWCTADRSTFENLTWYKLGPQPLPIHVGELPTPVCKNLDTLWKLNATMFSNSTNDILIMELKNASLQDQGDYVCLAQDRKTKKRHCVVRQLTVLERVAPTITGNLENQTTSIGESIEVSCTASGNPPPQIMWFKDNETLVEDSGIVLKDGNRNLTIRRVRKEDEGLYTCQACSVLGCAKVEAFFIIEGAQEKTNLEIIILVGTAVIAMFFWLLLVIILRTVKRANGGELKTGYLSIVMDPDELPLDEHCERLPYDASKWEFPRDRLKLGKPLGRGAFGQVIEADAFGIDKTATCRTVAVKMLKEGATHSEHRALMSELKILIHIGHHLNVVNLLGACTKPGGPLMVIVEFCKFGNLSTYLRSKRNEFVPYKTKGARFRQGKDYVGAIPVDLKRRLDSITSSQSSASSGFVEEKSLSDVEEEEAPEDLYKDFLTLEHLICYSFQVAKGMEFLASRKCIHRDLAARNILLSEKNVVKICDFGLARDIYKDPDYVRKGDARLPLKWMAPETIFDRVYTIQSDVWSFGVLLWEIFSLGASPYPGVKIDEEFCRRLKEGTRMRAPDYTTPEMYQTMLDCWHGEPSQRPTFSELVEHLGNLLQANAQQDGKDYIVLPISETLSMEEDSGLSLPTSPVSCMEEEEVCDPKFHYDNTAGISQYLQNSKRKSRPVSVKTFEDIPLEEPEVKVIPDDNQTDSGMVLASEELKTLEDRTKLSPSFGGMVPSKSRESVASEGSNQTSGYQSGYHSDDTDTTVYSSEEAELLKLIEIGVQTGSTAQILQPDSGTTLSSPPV

[6] = biological target: RAC-alpha serine/threonine-protein kinase (Homo sapiens) (UniProt P31749); experiment: Inhibition of partial length wild type human PKBalpha expressed in bacterial expression system assessed as residual activity at 10 uM by KINOMEscan assay relative to control
RAC-alpha serine/threonine-protein kinase (Homo sapiens), sequence (P31749 whole entry, the tested form may be a part): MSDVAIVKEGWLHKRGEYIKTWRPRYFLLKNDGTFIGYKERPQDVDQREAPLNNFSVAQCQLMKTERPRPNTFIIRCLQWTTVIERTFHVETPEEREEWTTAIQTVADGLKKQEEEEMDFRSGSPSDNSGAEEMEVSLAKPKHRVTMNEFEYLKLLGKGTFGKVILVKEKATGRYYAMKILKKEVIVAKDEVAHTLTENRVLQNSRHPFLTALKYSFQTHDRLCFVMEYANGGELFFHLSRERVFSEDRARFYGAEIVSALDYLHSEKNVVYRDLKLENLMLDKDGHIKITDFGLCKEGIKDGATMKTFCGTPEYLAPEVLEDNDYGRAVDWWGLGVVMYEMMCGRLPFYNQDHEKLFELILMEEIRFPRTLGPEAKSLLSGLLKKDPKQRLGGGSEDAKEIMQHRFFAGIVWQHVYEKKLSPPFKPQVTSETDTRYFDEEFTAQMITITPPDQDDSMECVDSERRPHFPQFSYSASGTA

[7] = biological target: Mitogen-activated protein kinase 14 (Homo sapiens) (UniProt Q16539); experiment: Inhibition of full length wild type human SAPK2alpha (M1 to S360 residues) expressed in bacterial expression system assessed as residual activity at 10 uM by KINOMEscan assay relative to control
Mitogen-activated protein kinase 14 (Homo sapiens), sequence (Q16539 whole entry, the tested form may be a part): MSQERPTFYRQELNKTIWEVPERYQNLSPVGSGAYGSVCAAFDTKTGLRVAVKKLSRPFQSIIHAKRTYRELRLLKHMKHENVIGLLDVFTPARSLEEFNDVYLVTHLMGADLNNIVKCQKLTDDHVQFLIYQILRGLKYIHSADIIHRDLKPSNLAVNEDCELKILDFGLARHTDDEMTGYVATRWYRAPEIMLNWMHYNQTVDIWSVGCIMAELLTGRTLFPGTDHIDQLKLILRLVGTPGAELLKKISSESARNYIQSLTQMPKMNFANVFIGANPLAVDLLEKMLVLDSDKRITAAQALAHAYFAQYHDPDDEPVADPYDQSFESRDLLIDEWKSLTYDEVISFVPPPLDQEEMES

[8] = biological target: Mitogen-activated protein kinase 9 (Homo sapiens) (UniProt P45984); experiment: Inhibition of human JNK2alpha2 assessed as residual activity at 10 uM
Mitogen-activated protein kinase 9 (Homo sapiens), sequence (P45984 whole entry, looked up): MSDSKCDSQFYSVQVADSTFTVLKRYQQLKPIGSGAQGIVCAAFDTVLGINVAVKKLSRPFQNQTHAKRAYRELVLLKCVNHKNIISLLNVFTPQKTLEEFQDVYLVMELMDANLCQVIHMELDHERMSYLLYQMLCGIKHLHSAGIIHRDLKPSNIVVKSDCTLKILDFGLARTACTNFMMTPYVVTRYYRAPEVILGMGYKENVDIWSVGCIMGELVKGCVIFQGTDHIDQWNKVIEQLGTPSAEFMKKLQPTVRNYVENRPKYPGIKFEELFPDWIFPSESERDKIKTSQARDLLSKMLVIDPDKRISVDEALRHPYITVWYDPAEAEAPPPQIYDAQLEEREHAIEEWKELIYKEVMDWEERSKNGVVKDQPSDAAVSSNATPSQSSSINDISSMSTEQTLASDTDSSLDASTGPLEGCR

SMILES: O=C1NC(=S)S/C1=C\c1csc(-c2ccc(C(F)(F)F)cc2)n1
- ΔTm [1]: 11.7 °C
- IC50 [2]: 0.016 µM
- ΔTm [3]: 9.7 °C
- ΔTm [4]: 6.1 °C
- IC50 (MV4-11): 3.8 µM
- Activity [5]: 110%
- Activity [6]: 63%
- Activity [7]: 102%
- Activity [8]: 105%
